# Patent publication EP3431468B1, “USE OF ADIPONECTIN RECEPTOR AGONISTS IN TREATING DEPRESSION, ANXIETY AND NEUROINFLAMMATION” (CENTRE NATIONAL DE LA RECHERCHE SCIENTIFIQUE, priority 2017, dated 2019)
# Experiments:
# Kyn pathway = test: Kynurenine pathway metabolites measurement in plasma; type: in vivo; conditions: long-term corticosterone-treated mice, chronic AdipoRon treatment
# Method: Data were digitized at 5-10 kHz using a Digidata interface coupled to a microcomputer running pClamp 9 (Axon Instruments, USA). Current-clamp data were digitized at 0.5 kHz using the same interface. Potentials were digitally filtered at 1-3 kHz. Average data were expressed as mean ± SEM, n = number of neurons, N = number of mice. • Western blot analysis - Total proteins were extracted from mouse hypothalamus by homogenization in lysis buffer (50mM Tris-HCl, pH7.5, 150mM NaCl, 5mM EDTA containing 0.5% Triton X-100 and 0.5% sodium deoxycholate with a coktail of protease and phosphatase inhibitors). Equal amounts of total proteins (50µg) determined by the Bradford method (BioRad) were separated onto 12% SDS-PAGE, then transferred on nitrocellulose membrane (Schleicher & Schuell, Dassel, Germany). […] IFNγ, IL1β, IL6, and TNFα, levels were measured using an electro-chemo-luminescence (ECL)-based assay (U-plex, MesoScaleDiscovery) following manufacturer instructions. Results were standardized according to the protein concentration of each sample determined by the Bradford method. • Kynurenine pathway metabolites measurement - Plasma levels of L-kynurenin (L-Kyn), tryptophan (Trp), kynurenin acid (Kyn ac), 5-HT and 5-HIAA were determined as follows: 25µl of plasma was deproteinated with 150µl of cold MeOH. […]
# [1] = test system: neurons of dorso-median raphe nucleus; test: Whole-cell patch-clamp recordings on brain slices, current clamp; type: cell-based, mouse
structure (smiles),measurement,setting,value
"O=C(COc1ccc(C(=O)c2ccccc2)cc1)NC1CCN(Cc2ccccc2)CC1 [AdipoRon, 2-(4-Benzoylphenoxy)-N-[1-(phenylmethyl)-4-piperidinyl]-acetamide]",Kyn ac:L-Kyn ratio,Kyn pathway,restoring the physiological
same,L-Kyn:Trp ratio,Kyn pathway,restoring the physiological
same,action potential discharge,"[1]; 1/7 presumed serotoninergic neuron, current clamp",no effect
same,membrane potential,"[1]; 6 out of 7 presumed serotoninergic neurons, current clamp",small depolarization
same,action potential discharge frequency,"[1]; 6 out of 7 presumed serotoninergic neurons, current clamp, N= 4 mice",increase in action potential discharge frequency
same,membrane potential,"[1]; presumed non-serotoninergic neurons, 2/4",hyperpolarization
same,membrane potential,"[1]; presumed non-serotoninergic neurons, the other 2/4",no effect
